Experiments:
THR-β = target: T1, THR-β (Homo sapiens, UniProt P10828); test: in vitro THR β agonist activity at the molecular level (AlphaScreen detection); format: biochemical; settings: in vitro molecular evaluation system; for Selectivity: THR-β versus THR-α; for Emax: read-out: THR-β Rel % Activity of T3
T1 construct: GST; made in house
T1 sequence (P10828 1-461): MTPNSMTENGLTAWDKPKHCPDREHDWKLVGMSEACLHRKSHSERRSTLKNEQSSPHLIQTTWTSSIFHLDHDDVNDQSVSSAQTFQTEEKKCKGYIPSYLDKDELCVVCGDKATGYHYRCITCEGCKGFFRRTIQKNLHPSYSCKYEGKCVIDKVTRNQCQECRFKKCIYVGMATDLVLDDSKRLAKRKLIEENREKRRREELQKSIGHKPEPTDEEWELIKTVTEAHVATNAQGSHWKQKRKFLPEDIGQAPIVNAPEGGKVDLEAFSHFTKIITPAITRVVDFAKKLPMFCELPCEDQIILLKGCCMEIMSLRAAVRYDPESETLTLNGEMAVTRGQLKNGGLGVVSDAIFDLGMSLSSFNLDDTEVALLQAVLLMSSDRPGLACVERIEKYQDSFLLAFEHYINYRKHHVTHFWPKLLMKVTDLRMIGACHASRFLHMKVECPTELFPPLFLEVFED
Experimental: At the molecular level, the binding ability of the compound to thyroid hormone receptor β (THR β) was measured by AlphaScreen detection. Firstly, recombinant GST-THR β fusion proteins were constructed, followed by compound-receptor binding reactions in 384-well plates.

THR-α = target: T2, THR-α (Homo sapiens, UniProt P10827); test: in vitro agonist activity at the molecular level (AlphaScreen detection), THR-α; format: biochemical; settings: in vitro molecular evaluation system; for Emax: read-out: THR-α Rel % Activity of T3
T2 sequence (P10827 1-410 isoform P10827-2): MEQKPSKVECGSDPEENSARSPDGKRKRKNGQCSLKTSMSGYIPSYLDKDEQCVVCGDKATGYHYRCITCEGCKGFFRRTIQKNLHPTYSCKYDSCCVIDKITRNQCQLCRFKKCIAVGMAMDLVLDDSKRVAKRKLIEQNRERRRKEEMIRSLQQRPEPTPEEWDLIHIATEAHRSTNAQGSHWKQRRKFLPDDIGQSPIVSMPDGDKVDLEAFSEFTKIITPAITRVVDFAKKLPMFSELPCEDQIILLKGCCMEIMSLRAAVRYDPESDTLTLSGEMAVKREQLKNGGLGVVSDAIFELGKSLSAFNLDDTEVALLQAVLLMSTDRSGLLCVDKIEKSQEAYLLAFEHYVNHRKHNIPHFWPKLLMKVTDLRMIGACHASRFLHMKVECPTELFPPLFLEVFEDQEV

## Cc1cc(-c2ccco2)nc2ccc(Oc3c(Cl)cc(-n4nc(C#N)c(=O)[nH]c4=O)cc3Cl)cc12 [Compound 15, 2-(3,5-Dichloro-4-((2-(furan-2-yl)-4-methylquinolin-6-yl)oxy)phenyl) -3,5-dioxo-2,3,4,5-tetrahydro-1,2,4-triazine-6-carbonitrile]
THR-β
  EC50: 0.0717 µM
  Selectivity: 3.9
  Emax: 84.3%
THR-α
  EC50: 0.28 µM
  Emax: 62.5%

## Cc1cc(-c2ccoc2)nc2ccc(Oc3c(Cl)cc(-n4nc(C#N)c(=O)[nH]c4=O)cc3Cl)cc12 [Compound 17]
THR-β
  EC50: 0.296 µM
  Selectivity: 4.2
  Emax: 73.7%
THR-α
  EC50: 1.24 µM
  Emax: 57.6%

## Cc1cc(-c2cccs2)nc2ccc(Oc3c(Cl)cc(-n4nc(C#N)c(=O)[nH]c4=O)cc3Cl)cc12 [Compound 19, 2-(3,5-Dichloro-4-((2-(thiophen-2-yl) -4-methylquinolin-6-yl)oxy)phenyl) -3,5-dioxo-2,3,4,5-tetrahydro-1,2,4-triazine-6-carbonitrile]
THR-β
  EC50: 0.379 µM
  Emax: 71.8%
THR-α
  EC50: > 50 µM

## Cc1cc(-c2ccc(F)cc2)nc2ccc(Oc3c(Cl)cc(-n4nc(N)c(=O)[nH]c4=O)cc3Cl)cc12 [Compound 60, 6-amino-2-(3,5-dichloro-4-((2-(4-fluorophenyl)-4-methylquinolin-6-yl)oxy)phenyl)-1,2,4-triazine-3,5(2H,4H)-dione]
THR-β
  EC50: 0.0083 µM
  Selectivity: 6.89
  Emax: 83%
THR-α
  EC50: 0.0572 µM
  Emax: 62.7%

## Nc1nn(-c2cc(Cl)c(Oc3ccc4nccc(Cl)c4c3)c(Cl)c2)c(=O)[nH]c1=O [Compound 99, 6-amino-2-(3,5-dichloro-4((4-chloroquinolin-6-yl)oxy)phenyl)-1,2,4-triazine-3,5(2H,4H)-dione]
THR-β
  EC50: 0.0315 µM
  Selectivity: 7.85
  Emax: 76.3%
THR-α
  EC50: 0.248 µM
  Emax: 67.5%

## Cc1cc(C2CCCCC2)nc2ccc(Oc3c(Cl)cc(-n4nc(N)c(=O)[nH]c4=O)cc3Cl)cc12 [Compound 134, 6-amino-2-(3,5-dichloro-4-((2-cyclohexyl-4-methylquinolin-6-yl)oxy)phenyl)-1,2,4-triazine-3,5(2H,4H)-dione]
THR-β
  EC50: 0.12 µM
  Selectivity: 4.2
  Emax: 92.3%
THR-α
  EC50: 0.429 µM
  Emax: 38.4%
